In ChEMBL document CHEMBL4811239, “Insertion of metal carbenes into the anilinic N-H bond of unprotected aminobenzenesulfonamides delivers low nanomolar inhibitors of human carbonic anhydrase IX and XII isoforms” (Eur J Med Chem, 2021) one finds Ki and Activity data, which are given here for twelve molecules.

In one assay the target is Carbonic anhydrase 12 (Homo sapiens, UniProt O43570). In words: Inhibition of recombinant human CA12 pre-incubated for 15 mins prior to testing by phenol red-based stopped-flow CO2 hydration assay.
Assay [1] has as its system MCF7. In words: Antiproliferative activity against human MCF7 cells assessed as cell survival at 100 uM after 72 hrs under hypoxic condition by MTT assay. In kind it is functional.
Assay [2] concerns MCF7. As to the kind of experiment: Antiproliferative activity against human MCF-7 cells assessed as cell survival at 100 uM after 72 hrs under normoxic condition by MTT assay. In kind it is functional.
Another assay has as its target Carbonic anhydrase 1 (Homo sapiens, UniProt P00915). As to the kind of experiment: Inhibition of recombinant human CA1 pre-incubated for 15 mins prior to testing by phenol red-based stopped-flow CO2 hydration assay.
The subject of assay [3] is MDA-MB-231. As to the kind of experiment: Antiproliferative activity against human MDA-MB-231 cells assessed as reduction in cell viability at 100 uM after 72 hrs under hypoxic condition by MTT assay. In kind it is functional.
Assay [4] has as its system MDA-MB-231. In words: Antiproliferative activity against human MDA-MB-231 cells assessed as reduction in cell viability at 100 uM after 72 hrs under normoxic condition by MTT assay. The assay is classed as functional.
The target in another assay is Carbonic anhydrase 9 (Homo sapiens, UniProt Q16790). As to the kind of experiment: Inhibition of recombinant human CA9 pre-incubated for 15 mins prior to testing by phenol red-based stopped-flow CO2 hydration assay.

Activity calls are given as the source filed them. The calls are words filed in the database; no cut-off is given here.

Chain of Carbonic anhydrase 12 (O43570 whole entry): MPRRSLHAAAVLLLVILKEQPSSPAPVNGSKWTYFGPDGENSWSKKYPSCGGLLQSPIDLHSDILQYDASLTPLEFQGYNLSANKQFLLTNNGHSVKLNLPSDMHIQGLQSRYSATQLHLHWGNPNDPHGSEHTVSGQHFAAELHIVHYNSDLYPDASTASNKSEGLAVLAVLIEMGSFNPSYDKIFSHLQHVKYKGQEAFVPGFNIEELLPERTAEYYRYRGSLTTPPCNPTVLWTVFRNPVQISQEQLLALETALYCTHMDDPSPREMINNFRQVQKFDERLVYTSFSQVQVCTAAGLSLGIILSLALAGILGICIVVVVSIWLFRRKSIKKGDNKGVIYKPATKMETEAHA
Chain of Carbonic anhydrase 1 (P00915 whole entry): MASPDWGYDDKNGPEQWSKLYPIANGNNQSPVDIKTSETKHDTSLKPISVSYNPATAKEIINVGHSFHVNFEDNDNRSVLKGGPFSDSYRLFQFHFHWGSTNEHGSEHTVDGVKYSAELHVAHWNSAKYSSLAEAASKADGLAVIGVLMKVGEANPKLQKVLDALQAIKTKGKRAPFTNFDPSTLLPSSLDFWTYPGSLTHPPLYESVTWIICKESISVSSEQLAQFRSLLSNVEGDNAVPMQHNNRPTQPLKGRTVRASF

Regarding `NS(=O)(=O)c1ccc(NCC(=O)N2CCN(Cc3ccc(Cl)cc3)CC2)cc1`, the figures for the inhibition constant Ki on Carbonic anhydrase 12, on Carbonic anhydrase 1 and at Carbonic anhydrase 9 were 11.3 nM, 146 nM and 21.2 nM, respectively. In addition, the outcome in the assay with MCF7 [1], in the assay on MCF7 [2], in the assay with MDA-MB-231 [3] and in the assay with MDA-MB-231 [4] was inactive.

For the molecule `COCCOC(=O)C(Nc1ccc(S(N)(=O)=O)cc1)C(=O)OCCOC`, the Ki on Carbonic anhydrase 12 came out at 45 nM; on Carbonic anhydrase 1, 85.8 nM; on Carbonic anhydrase 9, 36.8 nM. The outcome in the assay on MCF7 [1], with MCF7 [2], with MDA-MB-231 [3] and in the assay on MDA-MB-231 [4] was inactive.

As for `CC(C)C(C(=O)Nc1ccc(S(N)(=O)=O)cc1)C(=O)c1ccccc1` (stereo not given), the Ki on Carbonic anhydrase 12 turned out to be 35.6 nM; at Carbonic anhydrase 1, 183 nM; on Carbonic anhydrase 9 it was 30.1 nM. Moreover, the outcome in the assay with MCF7 [1], with MCF7 [2], in the assay on MDA-MB-231 [3] and in the assay with MDA-MB-231 [4] was inactive.

As to `CC(C)C(C(=O)Nc1cccc(S(N)(=O)=O)c1)C(=O)c1ccccc1` (stereo not given), the Ki is 59.6 nM at Carbonic anhydrase 12, 1360 nM on Carbonic anhydrase 1 and 71.1 nM at Carbonic anhydrase 9. The result with MCF7 [1], in the assay on MCF7 [2], in the assay on MDA-MB-231 [3] and in the assay on MDA-MB-231 [4] was inactive.

For `CCOC(=O)C(Nc1ccc(S(N)(=O)=O)cc1)C(=O)OCC`, the Ki on Carbonic anhydrase 12 is 57.2 nM; at Carbonic anhydrase 1 it was 135 nM; at Carbonic anhydrase 9, 52.4 nM. Besides, the result with MCF7 [1], in the assay with MCF7 [2], in the assay with MDA-MB-231 [3] and in the assay on MDA-MB-231 [4] was inactive.

On to `CCOC(=O)C(C(=O)Nc1cccc(S(N)(=O)=O)c1)C(C)C` (stereo not given), for which the inhibitory constant (Ki) at Carbonic anhydrase 12 stood at 113 nM; at Carbonic anhydrase 1, 346 nM; at Carbonic anhydrase 9, 70.1 nM. Moreover, the outcome in the assay with MCF7 [1], with MCF7 [2], with MDA-MB-231 [3] and in the assay with MDA-MB-231 [4] was inactive.

In the case of `COc1ccc(C(=O)CNc2cccc(S(N)(=O)=O)c2)cc1`, the Ki on Carbonic anhydrase 12 stood at 189 nM; at Carbonic anhydrase 1, 920 nM; on Carbonic anhydrase 9 it was 54.3 nM. Besides, the result in the assay with MCF7 [1], with MCF7 [2], in the assay with MDA-MB-231 [3] and with MDA-MB-231 [4] was inactive.

In the case of `COC(=O)C(Nc1ccc(S(N)(=O)=O)cc1)C(=O)c1ccccc1OC` (stereo not given), the Ki on Carbonic anhydrase 12 turned out to be 26.5 nM; on Carbonic anhydrase 1 it was 829 nM; on Carbonic anhydrase 9, 25.6 nM.

On to `CCOC(=O)C(C(=O)Nc1ccc(S(N)(=O)=O)cc1)C(C)C` (stereo not given), for which the outcome in the assay with MCF7 [1], with MCF7 [2], with MDA-MB-231 [3] and with MDA-MB-231 [4] was inactive. The Ki on Carbonic anhydrase 1 was 56.9 nM; on Carbonic anhydrase 9, 32 nM.

For the molecule `COC(=O)C(Nc1ccc(S(N)(=O)=O)cc1)C(=O)OC`, the result in the assay with MCF7 [1], in the assay on MCF7 [2], in the assay on MDA-MB-231 [3] and in the assay with MDA-MB-231 [4] was inactive. For the same molecule, the Ki worked out at 166 nM on Carbonic anhydrase 1 and 58.1 nM at Carbonic anhydrase 9.

With `COC(=O)C(Nc1cccc(S(N)(=O)=O)c1)C(=O)c1ccc(OC)cc1` (stereo not given), the result in the assay with MCF7 [1], in the assay with MCF7 [2], with MDA-MB-231 [3] and in the assay with MDA-MB-231 [4] was inactive. In addition, the Ki amounted to 2550 nM on Carbonic anhydrase 1 and 91.9 nM at Carbonic anhydrase 9.

Regarding `COc1ccccc1CC1=C(Nc2ccc(S(N)(=O)=O)cc2)C(=O)N(c2ccccc2)C1=O`, the Ki is 87.9 nM on Carbonic anhydrase 12, more than 10000 nM at Carbonic anhydrase 1 and 68 nM at Carbonic anhydrase 9. Also, the result with MCF7 [1] and with MCF7 [2] was Active.
